Where a name gives a salt, the structure may show the parent alone. Read-outs that look alike come from different tables or passages of the source.
Experiments:
[1] = Stability of pharmaceutical formulations (1 mg/mL solutions); assay type: physicochemical; settings: for Purity (%) at week n = 4: week 4; for Purity (%) at week n = 1: week 1
Experimental: The samples were sonicated to achieve clear solutions having the following properties: Osmolality (mOsm/kg): 310 (Na), 314 (HCl); pH: 7.00 (Na), 7.05 (HCl). 0.5 mL of the stock solutions were diluted to 1 mL with 20% DMSO in water & injected for purity analysis by HPLC. The remaining stock solutions were then split into aliquots of 0.5 mL in HPLC vials, and stored at various conditions in duplicate. Samples were stored at 5 and 25° C., before being analysed by HPLC at 1, 2 and 4 weeks. Separate samples were stored at 40° C. and analysed at 4 weeks.

LPS-stimulated rats = test: Endotoxin-induced uveitis in rats (assay vi); assay type: in vivo, Lewis rats; settings: rats treated with intravitreal LPS, result in words
Experimental: Male, Lewis rats (6-8 weeks old, Charles River UK Limited) are housed in cages of 3 at 19-21° C. with a 12 h light/dark cycle (07:00/19:00) and fed a standard diet of rodent chow and water ad libitum. Non-fasted rats are weighed, individually identified on the tail with a permanent marker, and receive a single intravitreal administration into the right vitreous humor (5 μL dose volume) of 100 ng/animal of LPS (Escherichia coli 0111:B4 prepared in PBS, Sigma Aldrich, UK) using a 32-gauge needle. Untreated rats are injected with PBS. Test compound or vehicle (4% polyoxyl 40 stearate, 4% mannitol in PBS (pH 7.4)) are administered by the topical route onto the right eye (10 μL) of animals 1 hour prior to LPS, at the time of LPS administration, and 1, 2 and 4 hours post LPS administration. Before administration, the solution to be administered is sonicated to ensure a clear solution. 6 hours after LPS dosing, animals are euthanized by overdose with pentobarbitone (via cardiac puncture). Immediately after euthanasia, 10 μL of aqueous humor is collected from the right eye of the rats by puncture of the anterior chamber using a 32 gauge needle under a surgical microscope. The aqueous humor is diluted in 20 μL of PBS and total cell counts are measured immediately using a Countess automated cell counter (Invitrogen). […]

[2] = 0.1 and 1.0 mg/mL, four daily ocular instillations, rabbits
[3] = tested on: Escherichia coli WP2 uvrA; test: Bacterial reverse mutation screen (plate incorporation, ±S-9); settings: for mutagenic effects (revertant numbers): presence and absence of S-9 mix
[4] = tested on: Salmonella typhimurium strains TA1535, TA1537, TA98 and TA100; test: as above; settings: for mutagenic effects (revertant numbers): TA1535, TA1537, TA98, TA100, presence and absence of S-9 mix; for toxicity to the bacteria (mean colony count): at the highest doses (500-5000 μg/plate), some strains
non-mutant kinases = assay type: binding; settings: for KinomeScan Selectivity Score S(1): fraction of non-mutant kinases with % Ctrl <1; for KinomeScan Selectivity Score S(10): fraction of non-mutant kinases with % Ctrl <10
Excerpt: These assays may be conducted by DiscoverX (formerly Ambit; San Diego, Calif.).

[5] = Hydrolytic stability study in DMSO/water (3:1) at 60 °C; assay type: physicochemical; settings: DMSO/water 3:1, 1 mg/mL, result in words
Experimental: Flow rate 2.5 mL/min. Column Oven Temperature 40° C. […] The peak area for the test compound was recorded following manual integration of the corresponding UV trace. • The test solution was heated to 60° C., with stirring, and 50 μL aliquots removed for HPLC analysis at 5 and 24 h timepoints.

COc1cc(Nc2cc(Oc3ccc(NC(=O)Nc4cc(C(C)(C)C)cc(NS(C)(=O)=O)c4OC)c4ccccc34)ccn2)ccc1C(=O)O [Example 1, 4-((4-((4-(3-(5-(tert-Butyl)-2-methoxy-3-(methylsulfonamido)phenyl)ureido)naphthalen-1-yl)oxy)pyridin-2-yl)amino)-2-methoxybenzoic acid]
stability in solution ([1]; 1 mg/mL Na and HCl salts in pH 7.2 phosphate buffer, 4.5% mannitol, 3% polyoxyl 40 stearate): stable in solution at 5 °C
cellular infiltration (cell counts) in the eyes (LPS-stimulated rats): significantly and dose-dependently reduced cellular infiltration
cytokine IL-1β levels in anterior and posterior segments of the eyes (LPS-stimulated rats): significantly and dose-dependently reduced
local tolerability of the formulations ([2]; Phase 1: one treatment day): acceptable after a single dosing day
ocular reactions compared with vehicle controls ([2]; Phase 1: one treatment day): no differences in the frequency, severity and incidence between the Example 1-treated animals and the vehicle controls
local tolerability of the formulations ([2]; Phase 2: three consecutive treatment days): acceptable without any aggravation for the 3 treatment days
mutagenic effects (revertant numbers) [3]: absence of any mutagenic effects
mutagenic effects (revertant numbers) [4]: absence of any mutagenic effects
toxicity to the bacteria (mean colony count) [4]: reduction in the mean colony count

COc1cc(Nc2cc(Oc3ccc(NC(=O)Nc4cc(C(C)(C)C)cc(NS(C)(=O)=O)c4OC)c4ccccc34)ccn2)ccc1P(C)(=O)O [Example 44, (4-((4-((4-(3-(5-(tert-Butyl)-2-methoxy-3-(methylsulfonamido)phenyl)ureido)naphthalen-1-yl)oxy)pyridin-2-yl)amino)-2-methoxyphenyl)(methyl)phosphinic acid]
toxicity to the bacteria (mean colony count) ([3]; 5000 μg/plate, absence of S-9 mix): reduction in the mean colony count
mutagenic effects (revertant numbers) [3]: absence of any mutagenic effects
mutagenic effects (revertant numbers) [4]: absence of any mutagenic effects
toxicity to the bacteria (mean colony count) [4]: reduction in the mean colony count

COc1cc(Nc2cc(Oc3ccc(NC(=O)Nc4cc(C(C)(C)C)cc(NS(C)(=O)=O)c4OC)c4ccccc34)ccn2)cc(OC)c1C(=O)NCCOCCOCCO [Example 36, 4-((4-((4-(3-(5-(tert-butyl)-2-methoxy-3-(methylsulfonamido)phenyl)ureido)naphthalen-1-yl)oxy)pyridin-2-yl)amino)-N-(2-(2-(2-hydroxyethoxy)ethoxy)ethyl)-2,6-dimethoxybenzamide]
KinomeScan Selectivity Score S(1) (non-mutant kinases; 50 nM): 0.002
KinomeScan Selectivity Score S(10) (non-mutant kinases; 50 nM): 0.050
KinomeScan Selectivity Score S(1) (non-mutant kinases; 500 nM): 0.079

COc1cc(Nc2cc(Oc3ccc(NC(=O)Nc4cc(C(C)(C)C)cc(NS(C)(=O)=O)c4OC)c4ccccc34)ccn2)ccc1C(=O)O [Example 1, sodium salt]
Purity (%) at week n = 4 ([1]; 1 mg/mL solution, Sample 1, 40° C.): 76.0%

COc1cc(Nc2cc(Oc3ccc(NC(=O)Nc4cc(C(C)(C)C)cc(NS(C)(=O)=O)c4OC)c4ccccc34)ccn2)ccc1C(=O)O.Cl [Example 1, hydrochloride salt]
Purity (%) at week n = 1 ([1]; 1 mg/mL solution, Sample 1, 25° C.): 98.0%
Purity (%) at week n = 2 ([1]; 1 mg/mL solution, Sample 2, 5° C., week 2): 98.0%
Purity (%) at week n = 4 ([1]; 1 mg/mL solution, Sample 2, 5° C.): 98.0%
Purity (%) at week n = 1 ([1]; 1 mg/mL solution, Sample 2, 25° C.): 98.0%

COc1cc(Nc2cc(Oc3ccc(NC(=O)Nc4cc(C(C)(C)C)cc(NS(C)(=O)=O)c4OC)c4ccccc34)ccn2)cc(OC)c1C(=O)NCCOCCOCCOP(=O)(O)O [Example 47, 2-(2-(2-(4-((4-((4-(3-(5-(tert-butyl)-2-methoxy-3-(methylsulfonamido)phenyl)ureido)-naphthalen-1-yl)oxy)pyridin-2-yl)amino)-2,6-dimethoxybenzamido)ethoxy)ethoxy)ethyl dihydrogen phosphate]
KinomeScan Selectivity Score S(10) (non-mutant kinases; 50 nM): 0.042
KinomeScan Selectivity Score S(1) (non-mutant kinases; 500 nM): 0.074

C#Cc1cc(Nc2nccc(Oc3ccc(NC(=O)Nc4cc(C(C)C)nn4-c4ccc(C)cc4)c4ccccc34)n2)cc(C(=O)NCCN2CCOCC2)c1 [Reference Compound B, 3-ethynyl-5-((4-((4-(3-(3-isopropyl-1-(p-tolyl)-1H-pyrazol-5-yl)ureido)naphthalen-1-yl)oxy)pyrimidin-2-yl)amino)-N-(2-morpholinoethyl)benzamide]
decomposition under the conditions of the hydrolytic stability study [5]: underwent substantial decomposition

— patent publication US10941115B2, “Kinase inhibitors” (Oxular Acquisitions Limited, priority 2014, dated 2021)
